Measured values reported in PMC9931176, “Discovery of Diverse Natural Products as Inhibitors of SARS-CoV-2 M^pro Protease through Virtual Screening” (Journal of Chemical Information and Modeling, 2021).
pIC50, pKi: −log10 of the molar value. Where “and” joins values, the source holds several entries; their conditions need not be identical. Identical values can stand only once. Like-named read-outs stand apart in the source and are kept apart here.

Target: recombinant SARS-CoV-2 Mpro (Severe acute respiratory syndrome coronavirus 2, UniProt P0DTD1)
Test: SARS-CoV-2 Mpro inhibition assay (FRET-based proteolytic activity assay)
Type: biochemical
Conditions: for pKi: substrate concentration-independent inhibition constant; for inhibitory activity in the in vitro test: at concentrations below 125 μM
[1] = Ki, 0.2 μM enzyme, 20 μM substrate, compound 125 to 0 μM, 2.5% DMSO
[2] = 0.2 μM enzyme, 20 μM substrate, compound 125 to 0 μM, 2.5% DMSO, read-out: IC50
[3] = 0.2 μM enzyme, 20 μM substrate, compound 125 to 0 μM, 2.5% DMSO, read-out: Ki

In the case of `COc1ccc(-c2cc(=O)c3c(O)cc(O[C@@H]4O[C@H](CO[C@@H]5O[C@@H](C)[C@H](O)[C@@H](O)[C@H]5O)[C@@H](O)[C@H](O)[C@H]4O)cc3o2)cc1` [linarin], the pIC50 was under 3.90, the pKi [1] was under 3.90 and the “inhibitory activity in the in vitro test” value was “lack of activity”.
`O=C(O[C@@H]1O[C@@H]2COC(=O)c3cc(O)c(O)c(O)c3-c3c(cc(O)c(O)c3O)C(=O)O[C@H]([C@H]1O)[C@@H]2O)c1cc(O)c(O)c(O)c1` [corilagin] gave a pIC50 of under 3.90 and a pKi [1] of under 3.90.
`CC1CCC2(C(=O)OC3OC(CO)C(O)C(O)C3O)CCC3(C)C(=CCC4C5(C)CCC(OC6OCC(O)C(O)C6O)C(C)(C)C5CCC43C)C2C1(C)O` (centres unmarked) [ziyu-glycoside I] was tested, and the pIC50 was under 3.90, the pKi [1] was under 3.90 and the “inhibitory activity in the in vitro test” value was “nonactive”.
With proanthocyanidins the pIC50 [2] was under 3.90, the “inhibitory activity in the in vitro test” value was “nonactive” and the pKi [3] was under 3.90.
`C[C@@H]1O[C@@H](OC[C@H]2O[C@@H](Oc3cc(O)c4c(c3)O[C@H](c3ccc(O)cc3)CC4=O)[C@H](O)[C@@H](O)[C@@H]2O)[C@H](O)[C@H](O)[C@H]1O` [narirutin] was tested, and the pIC50 was under 3.90 and the pKi [1] was under 3.90.
`C[C@@H]1O[C@@H](O[C@H]2[C@H](Oc3cc(O)c4c(=O)cc(-c5ccc(O)cc5)oc4c3)O[C@H](CO)[C@@H](O)[C@@H]2O)[C@H](O)[C@H](O)[C@H]1O` [rhoifolin] gave a pIC50 [2] of 3.64 and a pKi [3] of 4.09.
Compound `O=c1cc(-c2ccc(O)c(-c3c(O)cc(O)c4c(=O)cc(-c5ccc(O)cc5)oc34)c2)oc2cc(O)cc(O)c12` [amentoflavone] has a pIC50 of 4.55 and a pKi [1] of 5.00.
With `O=c1cc(-c2ccc(O)c(O)c2)oc2cc(O[C@@H]3O[C@H](CO)[C@@H](O)[C@H](O)[C@H]3O)cc(O)c12` [luteoloside] the pIC50 was under 3.90 and the pKi [1] was under 3.90.
For `O=C1c2c(O)cccc2C([C@@H]2O[C@H](CO)[C@@H](O)[C@H](O)[C@H]2O)c2cc(CO)cc(O)c21` (some centres unmarked) [aloin], the pIC50 was 4.02 and the pKi [1] was 4.09 and 4.47.
`CC1OC(OC2C(c3c(O)cc(O)c4c(=O)cc(-c5ccc(O)cc5)oc34)OC(CO)C(O)C2O)C(O)C(O)C1O` (centres unmarked) [vitexin-2-O-rhamnoside, vitexin-2-O-rhaMnoside] gave a pIC50 of 4.19 and a pKi [1] of 4.64.
